Data as given in US10239887B2, “Positive allosteric modulators of the muscarinic acetylcholine receptor M4” (Vanderbilt University, priority 2016, dated 2019).

Assays:
Human M2 = molecular target: T1, Human M2 (Homo sapiens, UniProt P08172); experiment: analogous cell-based functional assay using human M2
T1 sequence (P08172 1-466): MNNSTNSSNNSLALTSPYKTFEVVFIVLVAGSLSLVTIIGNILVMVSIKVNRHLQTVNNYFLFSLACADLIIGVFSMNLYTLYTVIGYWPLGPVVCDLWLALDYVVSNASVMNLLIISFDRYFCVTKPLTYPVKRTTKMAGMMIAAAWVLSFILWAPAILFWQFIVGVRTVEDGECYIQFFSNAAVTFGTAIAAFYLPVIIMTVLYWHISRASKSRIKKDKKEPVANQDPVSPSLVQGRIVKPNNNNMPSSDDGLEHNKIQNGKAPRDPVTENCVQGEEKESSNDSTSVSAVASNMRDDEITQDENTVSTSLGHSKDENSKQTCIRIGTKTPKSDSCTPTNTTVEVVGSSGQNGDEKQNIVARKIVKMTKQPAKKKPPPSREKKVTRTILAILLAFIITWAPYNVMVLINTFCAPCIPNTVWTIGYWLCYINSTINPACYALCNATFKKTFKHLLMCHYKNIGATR

[1] = system: 68 primary molecular targets; experiment: Eurofins LeadProfilingScreen (binding); settings: 10 μM (binding); all targets except human adenosine A2a

In the case of `Cc1nnc2sc3c(NCc4ccc(C(C)(C)O)cc4)ncnc3c2c1C` [Compound 76, 2-[4-[[(3,4-Dimethylpyrimido[4′,5′:4,5]thieno[2,3-c]pyridazin-8-yl)amino]methyl]phenyl]propan-2-ol], the Emax (Human M2; Human M2) is reported as 48%, the EC50 (Human M2; analogous assay using human M2) is reported as 2800 nM and the “inhibition of each target in the LeadProfilingScreen” value [1] is reported as < 50%.
